Values after ≈ are worked out from the molar mass of the structure shown.
Columns and labels:
Assay type in all cases: functional
[1] = system: Mycobacterium tuberculosis; assay: AntiMycobacterium tuberculosis activity 1-week GAST/Fe MIC (uM); conditions: 168 h
[2] = system: Mycobacterium tuberculosis; assay: AntiMycobacterium tuberculosis activity Replicating form: Average MIC90 (uM)
[3] = system: Mycobacterium tuberculosis; assay: AntiMycobacterium tuberculosis activity 1-week 7H9/glucose/BSA/Tx MIC (uM); conditions: 168 h
[4] = system: Mycobacterium tuberculosis; assay: AntiMycobacterium tuberculosis activity 2-week 7H9/ADC/Tw MIC (uM); conditions: 336 h
[5] = system: Mycobacterium tuberculosis; assay: AntiMycobacterium tuberculosis activity 2-week 7H9/glucose/BSA/Tx MIC (uM); conditions: 336 h
[6] = system: Mycobacterium tuberculosis; assay: AntiMycobacterium tuberculosis activity day 21 MIC99 in 7H9/2.5mM butyrate/pH6/0.1mM nitrite MIC99 (uM); conditions: 504 h
[7] = system: Mycobacterium tuberculosis; assay: AntiMycobacterium tuberculosis activity 1-week 7H9/cholesterol/BSA/Tx MIC (uM); conditions: 168 h
[8] = system: Mycobacterium tuberculosis; assay: AntiMycobacterium tuberculosis activity 2-week Alamar Blue 7H9/cholesterol/BSA/Tx MIC (uM); conditions: 336 h
[9] = system: Mycobacterium tuberculosis; assay: AntiMycobacterium tuberculosis activity 2-week GAST/Fe MIC (uM); conditions: 336 h
[10] = system: Mycobacterium tuberculosis; assay: AntiMycobacterium tuberculosis activity 2-week Alamar Blue 7H9/ADC/Tw MIC (uM); conditions: 336 h
[11] = system: Mycobacterium tuberculosis; assay: (§1) AntiMycobacterium tuberculosis activity day 10 in 7H9/2.5mM butyrate/pH6/0.1mM nitrite MIC90 (uM); conditions: 240 h
[12] = system: Mycobacterium tuberculosis; assay: AntiMycobacterium tuberculosis activity 2-week 7H9/DPPC/cholesterol/BSA/Tx MIC (uM); conditions: 336 h
HepG2 = assay: HepG2 CC50 (uM) Cytotoxicity; conditions: Homo sapiens
[13] = system: Mycobacterium tuberculosis; assay: AntiMycobacterium tuberculosis activity day 21 in 7H9/2.5mM butyrate/pH6/0.1mM nitrite MIC90 (uM); conditions: 504 h
[14] = system: Mycobacterium tuberculosis; assay: AntiMycobacterium tuberculosis activity 1-week 7H9/DPPC/cholesterol/BSA/Tx MIC (uM); conditions: 168 h
[15] = system: Mycobacterium tuberculosis; assay: AntiMycobacterium tuberculosis activity Non-Replicating form: Average MIC90 (uM)
[16] = system: Mycobacterium tuberculosis; assay: as §1; conditions: 240 h; remark: listed apart in the source
[17] = system: Mycobacterium tuberculosis; assay: AntiMycobacterium tuberculosis activity 1-week 7H9/ADC/Tw MIC (uM); conditions: 168 h

## Cc1cccc(-c2nc(Nc3ccncn3)c3sccc3n2)n1
[1]
  MIC: 6.25 µM (≈ 2 µg/mL)
[2]
  MIC90: 2.5 µM (≈ 0.801 µg/mL)
[3]
  MIC: ≥ 50 µM
[4]
  MIC: 9.4 µM (≈ 3.01 µg/mL)
[5]
  MIC: > 50 µM
[6]
  MIC: 6.25 µM (≈ 2 µg/mL)
[7]
  MIC: 37 µM (≈ 11.9 µg/mL)
[8]
  MIC: 6.25 µM (≈ 2 µg/mL)
[9]
  MIC: 12.5 µM (≈ 4 µg/mL)
[10]
  MIC: 9.4 µM (≈ 3.01 µg/mL)
[11]
  MIC90: 3.12 µM (≈ 1 µg/mL)
[12]
  MIC: > 50 µM
HepG2
  CC50: 14.3 µM
[13]
  MIC90: 6.25 µM (≈ 2 µg/mL)
[14]
  MIC: 37 µM (≈ 11.9 µg/mL)
[15]
  MIC90: 0.09 µM (≈ 0.0288 µg/mL)
[16]
  MIC90: 6.25 µM (≈ 2 µg/mL)
[17]
  MIC: 4.7 µM (≈ 1.51 µg/mL)

## COc1ccc(Cn2cnc3c(-c4ccco4)nc(Cl)nc32)cc1
[1]
  MIC: 0.78 µM (≈ 0.266 µg/mL)
[2]
  MIC90: > 100 µM
[3]
  MIC: > 50 µM
[4]
  MIC: > 50 µM
[5]
  MIC: > 50 µM
[6]
  MIC: > 50 µM
[7]
  MIC: 6.25 µM (≈ 2.13 µg/mL)
[8]
  MIC: 3.13 µM (≈ 1.07 µg/mL)
[9]
  MIC: 1.56 µM (≈ 0.532 µg/mL)
[10]
  MIC: 19 µM (≈ 6.47 µg/mL)
[11]
  MIC90: 50 µM (≈ 17 µg/mL)
[12]
  MIC: > 50 µM
HepG2
  CC50: > 100 µM
[13]
  MIC90: > 50 µM
[14]
  MIC: 4.7 µM (≈ 1.6 µg/mL)
[15]
  MIC90: 8.43 µM (≈ 2.87 µg/mL)
[16]
  MIC90: > 50 µM
[17]
  MIC: > 50 µM

## Cc1cc(C)c2cc(C(=O)NC3CCCCCCC3)[nH]c2c1
[1]
  MIC: < 0.02 µM
[2]
  MIC90: 0.01 µM (≈ 0.00298 µg/mL)
[3]
  MIC: < 0.02 µM
[4]
  MIC: 0.02 µM (≈ 0.00597 µg/mL)
[5]
  MIC: < 0.02 µM
[6]
  MIC: > 50 µM
[7]
  MIC: < 0.02 µM
[8]
  MIC: < 0.02 µM
[9]
  MIC: < 0.02 µM
[10]
  MIC: 0.02 µM (≈ 0.00597 µg/mL)
[11]
  MIC90: ≤ 0.04 µM
[12]
  MIC: < 0.02 µM
HepG2
  CC50: > 100 µM
[13]
  MIC90: ≤ 0.04 µM
[14]
  MIC: < 0.02 µM
[15]
  MIC90: 0.01 µM (≈ 0.00298 µg/mL)
[16]
  MIC90: > 50 µM
[17]
  MIC: < 0.02 µM

## O=C(CCC1CCCCC1)Nc1cccc(-c2nnc(-c3ccco3)o2)c1
[1]
  MIC: 1.2 µM (≈ 0.439 µg/mL)
[2]
  MIC90: 5.42 µM (≈ 1.98 µg/mL)
[3]
  MIC: 2.3 µM (≈ 0.84 µg/mL)
[4]
  MIC: 2.3 µM (≈ 0.84 µg/mL)
[5]
  MIC: 3.13 µM (≈ 1.14 µg/mL)
[6]
  MIC: 1.5 µM (≈ 0.548 µg/mL)
[7]
  MIC: 1.56 µM (≈ 0.57 µg/mL)
[8]
  MIC: 3.13 µM (≈ 1.14 µg/mL)
[9]
  MIC: 1.2 µM (≈ 0.439 µg/mL)
[10]
  MIC: 2.3 µM (≈ 0.84 µg/mL)
[11]
  MIC90: 1.5 µM (≈ 0.548 µg/mL)
[12]
  MIC: 3.13 µM (≈ 1.14 µg/mL)
HepG2
  CC50: > 100 µM
[13]
  MIC90: 1.5 µM (≈ 0.548 µg/mL)
[14]
  MIC: 2.3 µM (≈ 0.84 µg/mL)
[15]
  MIC90: 13.7 µM (≈ 4.99 µg/mL)
[16]
  MIC90: 1.5 µM (≈ 0.548 µg/mL)
[17]
  MIC: 1.2 µM (≈ 0.439 µg/mL)

## CCc1ccc(S(=O)(=O)Nc2cc(CN3CCN(CCC(C)C)CC3)ccc2C)cc1
[1]
  MIC: 19 µM (≈ 8.43 µg/mL)
[2]
  MIC90: 45.6 µM (≈ 20.2 µg/mL)
[3]
  MIC: 25 µM (≈ 11.1 µg/mL)
[4]
  MIC: 25 µM (≈ 11.1 µg/mL)
[5]
  MIC: 25 µM (≈ 11.1 µg/mL)
[6]
  MIC: > 50 µM
[7]
  MIC: 12.5 µM (≈ 5.55 µg/mL)
[8]
  MIC: 12.5 µM (≈ 5.55 µg/mL)
[9]
  MIC: 25 µM (≈ 11.1 µg/mL)
[10]
  MIC: 25 µM (≈ 11.1 µg/mL)
[11]
  MIC90: > 50 µM
[12]
  MIC: 12.5 µM (≈ 5.55 µg/mL)
HepG2
  CC50: 27.4 µM
[13]
  MIC90: 50 µM (≈ 22.2 µg/mL)
[14]
  MIC: 12.5 µM (≈ 5.55 µg/mL)
[15]
  MIC90: 89.8 µM (≈ 39.8 µg/mL)
[16]
  MIC90: > 50 µM
[17]
  MIC: 25 µM (≈ 11.1 µg/mL)

## CCCn1nnc(NC(=O)COc2ccc(C3CCCCC3)cc2)n1
[1]
  MIC: 6.25 µM (≈ 2.15 µg/mL)
[2]
  MIC90: 40.1 µM (≈ 13.8 µg/mL)
[3]
  MIC: 19 µM (≈ 6.53 µg/mL)
[4]
  MIC: 37 µM (≈ 12.7 µg/mL)
[5]
  MIC: 37 µM (≈ 12.7 µg/mL)
[6]
  MIC: 50 µM (≈ 17.2 µg/mL)
[7]
  MIC: 6.25 µM (≈ 2.15 µg/mL)
[8]
  MIC: 25 µM (≈ 8.59 µg/mL)
[9]
  MIC: 12.5 µM (≈ 4.29 µg/mL)
[10]
  MIC: 37 µM (≈ 12.7 µg/mL)
[11]
  MIC90: 25 µM (≈ 8.59 µg/mL)
[12]
  MIC: 37 µM (≈ 12.7 µg/mL)
HepG2
  CC50: > 100 µM
[13]
  MIC90: 50 µM (≈ 17.2 µg/mL)
[14]
  MIC: 19 µM (≈ 6.53 µg/mL)
[15]
  MIC90: 98.5 µM (≈ 33.8 µg/mL)
[16]
  MIC90: 50 µM (≈ 17.2 µg/mL)
[17]
  MIC: 19 µM (≈ 6.53 µg/mL)

## CCc1c(C)nc(-n2nc(C)cc2NC(=O)c2ccccc2SC)[nH]c1=O
[1]
  MIC: 0.1 µM (≈ 0.0383 µg/mL)
[2]
  MIC90: > 100 µM
[3]
  MIC: 9.4 µM (≈ 3.6 µg/mL)
[4]
  MIC: > 50 µM
[5]
  MIC: > 50 µM
[6]
  MIC: > 50 µM
[7]
  MIC: 6.25 µM (≈ 2.4 µg/mL)
[8]
  MIC: > 50 µM
[9]
  MIC: 0.2 µM (≈ 0.0767 µg/mL)
[10]
  MIC: 37 µM (≈ 14.2 µg/mL)
[11]
  MIC90: 3.12 µM (≈ 1.2 µg/mL)
[12]
  MIC: > 50 µM
HepG2
  CC50: 1.3 µM
[13]
  MIC90: > 50 µM
[14]
  MIC: 3.13 µM (≈ 1.2 µg/mL)
[15]
  MIC90: 1.25 µM (≈ 0.479 µg/mL)
[16]
  MIC90: > 50 µM
[17]
  MIC: > 50 µM

## c1coc(CNc2nc(N3CCCCC3)nc3ccccc23)c1
[1]
  MIC: 9.4 µM (≈ 2.9 µg/mL)
[2]
  MIC90: 8.41 µM (≈ 2.59 µg/mL)
[3]
  MIC: 6.25 µM (≈ 1.93 µg/mL)
[4]
  MIC: 25 µM (≈ 7.71 µg/mL)
[5]
  MIC: 12.5 µM (≈ 3.85 µg/mL)
[6]
  MIC: 25 µM (≈ 7.71 µg/mL)
[7]
  MIC: 4.7 µM (≈ 1.45 µg/mL)
[8]
  MIC: 6.25 µM (≈ 1.93 µg/mL)
[9]
  MIC: 9.4 µM (≈ 2.9 µg/mL)
[10]
  MIC: 25 µM (≈ 7.71 µg/mL)
[11]
  MIC90: 12.5 µM (≈ 3.85 µg/mL)
[12]
  MIC: 9.4 µM (≈ 2.9 µg/mL)
HepG2
  CC50: 18.6 µM
[13]
  MIC90: 25 µM (≈ 7.71 µg/mL)
[14]
  MIC: 6.25 µM (≈ 1.93 µg/mL)
[15]
  MIC90: 27.8 µM (≈ 8.58 µg/mL)
[16]
  MIC90: 12.5 µM (≈ 3.85 µg/mL)
[17]
  MIC: 19 µM (≈ 5.86 µg/mL)

## CCCc1ccc(S(=O)(=O)Nc2ccc(CN3CCN(CC4CC4)CC3)cc2)cc1
[1]
  MIC: 12.5 µM (≈ 5.35 µg/mL)
[2]
  MIC90: 18.7 µM (≈ 8.01 µg/mL)
[3]
  MIC: 9.4 µM (≈ 4.02 µg/mL)
[4]
  MIC: 19 µM (≈ 8.12 µg/mL)
[5]
  MIC: 9.4 µM (≈ 4.02 µg/mL)
[6]
  MIC: > 50 µM
[7]
  MIC: 6.25 µM (≈ 2.67 µg/mL)
[8]
  MIC: 6.25 µM (≈ 2.67 µg/mL)
[9]
  MIC: 12.5 µM (≈ 5.35 µg/mL)
[10]
  MIC: 19 µM (≈ 8.12 µg/mL)
[11]
  MIC90: 50 µM (≈ 21.4 µg/mL)
[12]
  MIC: 6.25 µM (≈ 2.67 µg/mL)
HepG2
  CC50: 17.7 µM
[13]
  MIC90: 50 µM (≈ 21.4 µg/mL)
[14]
  MIC: 4.7 µM (≈ 2.01 µg/mL)
[15]
  MIC90: 47.4 µM (≈ 20.3 µg/mL)
[16]
  MIC90: > 50 µM
[17]
  MIC: 19 µM (≈ 8.12 µg/mL)

From ChEMBL document CHEMBL3832761, “MMV Pathogen Box Bioactivity Data” (2017)
